The source of these data is US20220304993A1, “CONJUGATES OF AN ELECTRON-DONATING NITROGEN OR TERTIARY AMINE […]” (Ascendis Pharma A/S, priority 2019, published 2022).

The nature of this data set: In vitro release kinetics: cleavage rate of the reversible bond from the conjugates. The format is physicochemical. Conditions: pH 7.4, 37° C., aqueous buffer (48 mM sodium phosphate, 20% acetonitrile), disappearance of the conjugate by LCMS (UV detection), curve fitting, read-out: t1/2 (pH 7.4) (converted). The protocol:
The cleavage rate of the reversible bond from conjugates 8a-b was monitored at pH 7.4 and 37° C. in aqueous buffer (pH 7.4, 48 mM sodium phosphate, 20% acetonitrile). Disappearance of the conjugate was determined by LCMS (UV detection) and fitted with curve fitting software to obtain the half-life of the release.

For `CNCCCN(C)C(=O)Oc1ccc(C(C)[N+](C)(C)CCc2ccccc2)cc1` (centres unmarked) [Compound 8a], the half-life is 1.3 h. Next, `CNCCCN(C)C(=O)Oc1ccc(C(C)[n+]2cccc3ccccc32)cc1` (centres unmarked) [Compound 8b]: 1.8 h.
